Results reported in US9089572B2, “Inhibitors of p97” (California Institute of Technology, priority 2008, dated 2015).
Where a SMILES comes first, the peptide text is derived from it. The star is where a group is joined. Cbz = O=C(OCc1ccccc1)*

Tests used:
HTC116 WT = test: MTT cell growth assay, HTC116 WT; assay type: cell-based; conditions: 48 or 72 h, read-out: Cell line inhibition of growth GI50 HTC116 WT
Experimental: (§1) To probe further the effect of compound 2 and related compounds 1, 3, 5, 6 and 7, various concentrations of these compounds were added to 13 different cell lines and incubated for 48 or 72 h. An MTT assay was then performed to evaluate cell growth and survival.

DU145 = test: MTT cell growth assay, DU145; assay type: cell-based; conditions: Homo sapiens, DU-145, 48 or 72 h, read-out: Cell line inhibition of growth GI50 DU145
Experimental: as §1

HeLa = test: MTT cell growth assay, HeLa; assay type: cell-based; conditions: Homo sapiens, 48 or 72 h, read-out: Cell line inhibition of growth GI50 HeLa
Experimental: as §1

MCF7 = test: MTT cell growth assay, MCF7; assay type: cell-based; conditions: Homo sapiens, 48 or 72 h, read-out: Cell line inhibition of growth GI50 MCF7
Experimental: as §1

MDAMB-231 = test: MTT cell growth assay, MDAMB-231; assay type: cell-based; conditions: Homo sapiens, MDA-MB-231, 48 or 72 h, read-out: Cell line inhibition of growth GI50 MDAMB-231
Experimental: as §1

LNCaP = test: MTT cell growth assay, LNCaP; assay type: cell-based; conditions: Homo sapiens, 48 or 72 h, read-out: Cell line inhibition of growth GI50 LNCaP
Experimental: as §1

RL = test: MTT cell growth assay, RL; assay type: cell-based; conditions: Homo sapiens, 48 or 72 h, read-out: Cell line inhibition of growth GI50 RL
Experimental: as §1

Molt4 = test: MTT cell growth assay, Molt4; assay type: cell-based; conditions: Homo sapiens, MOLT-4, 48 or 72 h, read-out: Cell line inhibition of growth GI50 Molt4
Experimental: as §1

T532C-Cdc48 = T532C-Cdc48 (Saccharomyces cerevisiae, UniProt P25694, T532C); test: In vitro ATP hydrolysis (malachite green ATPase assay), T532C-Cdc48; assay type: biochemical, yeast
Experimental: (§2) Compounds were tested for their ability to inhibit the ATPase activity of purified wild type murine p97 and T532C-Cdc48, a mutant of yeast Cdc48 in which the residue analogous to cysteine 522, threonine 532, was converted to cysteine.
To determine whether cysteine 522 is necessary for inhibition of p97 by compound 2, a mutant of p97 was constructed in which cysteine 522 was converted to either alanine (C522A-mp97) or threonine (C522T-mp97). The IC50 values of compound 2 were measured the against various enzymes during a 20-minute preincubation (see Table 2). Mutation of cysteine 522 in p97 to either alanine or threonine decreased sensitivity to compound 2 by greater than 100-fold. On the other hand, yeast Cdc48, which normally is quite resistant to compound 2, became nearly 30-fold more sensitive to the compound upon introduction of a cysteine in place of threonine 532.

PC3 = test: MTT cell growth assay, PC3; assay type: cell-based; conditions: Homo sapiens, PC-3, 48 or 72 h, read-out: Cell line inhibition of growth GI50 PC3
Experimental: as §1

RPMI8226 = test: MTT cell growth assay, RPMI8226; assay type: cell-based; conditions: Homo sapiens, RPMI-8226, 48 or 72 h, read-out: Cell line inhibition of growth GI50 RPMI8226
Experimental: as §1

HCT116 p53−/− = test: MTT cell growth assay, HCT116 p53−/−; assay type: cell-based; conditions: Homo sapiens, HCT-116, 48 or 72 h, read-out: Cell line inhibition of growth GI50 HCT116 p53−/−
Experimental: as §1

CCRF-CEM = test: MTT cell growth assay, CCRF-CEM; assay type: cell-based; conditions: Homo sapiens, 48 or 72 h, read-out: Cell line inhibition of growth GI50 CCRF-CEM
Experimental: as §1

wild type murine p97 = wild type murine p97 (Mus musculus, UniProt Q01853); test: In vitro ATP hydrolysis (malachite green ATPase assay), wild type murine p97; assay type: biochemical; conditions: 200 nM p97, 20 min preincubation at 23° C., malachite green; read-out: In vitro ATP Hydrolysis Activity IC50 WT-mP97
Experimental: as §2

[1] = system: HeLa cell line that stably expresses UbG76V-GFP; test: Accumulation of UbG76V-GFP in HeLa cells (fluorescence microscopy); assay type: cell-based; conditions: fluorescence microscopy
Experimental: As a control, the same cells were treated with the proteasome inhibitor MG132. In the latter set of experiments, a HeLa cell line that stably expresses UbG76V-GFP was transfected with either wild type (WT), D1 mutant (E305Q), D2 mutant (E578Q) or E305Q, E578Q double mutant (QQ) murine 97-pcDNA4.1 plasmid (0.05 μg/100 μL) in a 96-well plate. After 23 h, the intensity of UbG76V-GFP signal was measured on a Molecular Devices ImageXpress automated fluorescence microscope. […] The direct accumulation of Ub-G76V-GFP caused by compound 2 at 25 μM is 4-fold less than that caused by MG132 at 2 μM. This is likely due to the fact that only fully folded Ub-G76V-GFP should require p97 for degradation by the proteasome.
As a second test of whether compound 8 can inhibit p97 in vivo, it was evaluated whether it can cause accumulation of the UbG76V-GFP reporter. A HeLa cell line that stably expresses UbG76V-GFP was treated with compound 8 for 1 h at 37° C., and was then evaluated by fluorescence microscopy. As a control, the same cells were treated with the proteasome inhibitor MG132. […] The level of GFP fluorescence was quantified in cells treated with compound 8 at different doses and for different periods of time (FIG. 28).

Ub-G76V-GFP/HeLa cells = test: Degradation of pre-accumulated Ub-G76V-GFP (cycloheximide chase after MG132 washout); assay type: cell-based; conditions: for % K: relative to 0 μM
Experimental: To evaluate this possibility, an assay was developed to determine the rate of degradation of pre-accumulated Ub-G76V-GFP molecules. […] Cells were then washed with PBS three times remove the MG132. Cells were then refreshed by adding DMEM containing cycloheximide (50 μg/mL; to block production of more Ub-G76V-GFP) and test compounds (0˜10 μM) were added into cells. Eight 96-well plates were prepared and one of the plates was imaged at 25, 50, 70, 100, 110, 125, 145, or 170 min after washing with PBS three times. After washing out MG132, degradation of pre-accumulated Ub-G76V-GFP appears to follow pseudo-first order reaction. Rate constant (K; 1/min) can be determined from the slope of plotting Ln (Fold Accumulation) versus Time (min) (see FIG. 17 and FIG. 18).
Ub-G76V-GFP/HeLa cells were treated with MG132 (2 μM) for 1 h and washed with PBS three times. DMEM containing cycloheximide (50 μg/mL) and compound 8 (0-10 μM) was added into cells. Eight 96-well plates were prepared and one of the plates was imaged at 25, 50, 70, 100, 110, 125, 145, or 170 min after washing with PBS three times.

MRC5-SV40 = test: CellTiter-Glo growth inhibition, MRC5 cells engineered to express SV40; assay type: cell-based
MRC5-WT = test: CellTiter-Glo growth inhibition, parental MRC5 cells; assay type: cell-based; conditions: Homo sapiens, 48 h at 37° C., read-out: Cell line inhibition of growth GI50 MRC5-WT

Sequence of T532C-Cdc48 (P25694 whole entry T532C): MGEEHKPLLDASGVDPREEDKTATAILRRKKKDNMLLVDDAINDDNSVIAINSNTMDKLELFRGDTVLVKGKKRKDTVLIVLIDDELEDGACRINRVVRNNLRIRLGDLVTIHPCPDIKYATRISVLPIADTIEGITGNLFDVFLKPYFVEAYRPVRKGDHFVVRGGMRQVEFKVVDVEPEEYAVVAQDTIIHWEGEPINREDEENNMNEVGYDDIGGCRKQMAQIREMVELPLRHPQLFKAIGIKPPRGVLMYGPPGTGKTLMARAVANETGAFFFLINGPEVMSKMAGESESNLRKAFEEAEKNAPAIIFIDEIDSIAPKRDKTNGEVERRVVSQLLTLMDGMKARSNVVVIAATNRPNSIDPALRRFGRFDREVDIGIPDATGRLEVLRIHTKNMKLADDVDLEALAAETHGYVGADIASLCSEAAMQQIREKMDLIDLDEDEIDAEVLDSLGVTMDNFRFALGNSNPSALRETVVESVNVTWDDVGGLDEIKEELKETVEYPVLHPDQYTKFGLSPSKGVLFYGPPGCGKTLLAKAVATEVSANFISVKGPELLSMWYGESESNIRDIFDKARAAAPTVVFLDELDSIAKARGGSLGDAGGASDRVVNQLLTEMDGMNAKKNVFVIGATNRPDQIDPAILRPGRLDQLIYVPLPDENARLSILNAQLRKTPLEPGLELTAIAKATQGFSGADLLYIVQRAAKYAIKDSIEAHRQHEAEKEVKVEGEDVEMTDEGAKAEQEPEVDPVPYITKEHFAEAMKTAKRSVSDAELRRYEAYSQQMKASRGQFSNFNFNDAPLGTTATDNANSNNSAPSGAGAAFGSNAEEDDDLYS
Sequence of wild type murine p97 (Q01853 whole entry): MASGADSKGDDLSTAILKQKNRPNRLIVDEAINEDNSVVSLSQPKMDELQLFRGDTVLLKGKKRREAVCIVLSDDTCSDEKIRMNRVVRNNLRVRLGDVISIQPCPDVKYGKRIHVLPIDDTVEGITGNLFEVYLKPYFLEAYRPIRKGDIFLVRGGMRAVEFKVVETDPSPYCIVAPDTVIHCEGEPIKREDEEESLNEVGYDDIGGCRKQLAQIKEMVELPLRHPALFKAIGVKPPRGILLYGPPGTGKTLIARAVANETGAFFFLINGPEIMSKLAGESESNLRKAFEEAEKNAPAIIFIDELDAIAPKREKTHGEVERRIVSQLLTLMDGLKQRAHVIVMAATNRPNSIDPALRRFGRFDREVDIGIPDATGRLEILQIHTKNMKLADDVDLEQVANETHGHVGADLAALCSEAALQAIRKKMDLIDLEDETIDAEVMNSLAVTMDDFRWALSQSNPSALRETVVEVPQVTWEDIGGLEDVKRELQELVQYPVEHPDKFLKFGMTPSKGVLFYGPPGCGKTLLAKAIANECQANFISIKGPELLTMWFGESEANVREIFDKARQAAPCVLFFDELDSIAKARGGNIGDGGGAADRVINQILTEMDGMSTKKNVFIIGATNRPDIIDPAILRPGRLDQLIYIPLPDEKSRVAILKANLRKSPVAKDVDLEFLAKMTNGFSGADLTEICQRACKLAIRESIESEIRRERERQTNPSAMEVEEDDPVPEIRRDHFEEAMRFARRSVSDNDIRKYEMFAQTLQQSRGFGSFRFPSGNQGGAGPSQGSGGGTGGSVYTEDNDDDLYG

SMILES: C=CC(=O)Nc1ncnc2c1c(-c1ccc3ccccc3c1)nn2C(C)(C)C [Compound 6]
- GI50 (HTC116 WT): 2800 ± 1600 nM
- GI50 (DU145): 2300 ± 700 nM
- GI50 (HeLa): 1200 ± 200 nM
- GI50 (MCF7): 1900 ± 400 nM
- GI50 (MDAMB-231): 5900 ± 2600 nM
- GI50 (LNCaP): 2500 ± 700 nM
- GI50 (RL): 1300 ± 400 nM
- GI50 (Molt4): 700 ± 100 nM
- IC50 (T532C-Cdc48): 24000 ± 7000 nM
- GI50 (PC3): 300 ± 230 nM
- GI50 (RPMI8226): 1200 ± 300 nM
- GI50 (HCT116 p53−/−): 2400 ± 1000 nM
- GI50 (CCRF-CEM): 1300 ± 400 nM
- IC50 (wild type murine p97): 3000 ± 1000 nM

SMILES: C=CC(=O)N(C(=O)C=C)c1ncnc2c1c(-c1ccc3ccccc3c1)nn2C(C)(C)C [Compound 7]
- GI50 (HTC116 WT): 5500 ± 1400 nM
- GI50 (DU145): 4900 ± 600 nM
- GI50 (HeLa): 1800 ± 600 nM
- GI50 (MCF7): 3600 ± 1000 nM
- GI50 (MDAMB-231): 21000 ± 11000 nM
- GI50 (LNCaP): 11000 ± 4000 nM
- GI50 (RL): 1400 ± 700 nM
- GI50 (Molt4): 1200 ± 500 nM
- IC50 (T532C-Cdc48): 22000 ± 11000 nM
- GI50 (PC3): 6200 ± 1200 nM
- GI50 (RPMI8226): 3400 ± 1700 nM
- GI50 (HCT116 p53−/−): 13000 ± 4000 nM
- GI50 (CCRF-CEM): 2400 ± 1100 nM
- IC50 (wild type murine p97): 1300 ± 700 nM

SMILES: CC(C)C[C@@H](C=O)NC(=O)[C@H](CC(C)C)NC(=O)[C@H](CC(C)C)NC(=O)OCc1ccccc1 [MG132, reference compound] (Cbz-Leu-Leu-Leu-aldehyde)
- accumulation of UbG76V-GFP ([1]; 1 h at 37° C.): caused detectable accumulation of UbG76V-GFP
- accumulation of UbG76V-GFP ([1]; 4 hours at 37° C.): caused accumulation of UbG76V-GFP
- K, rate constant of Ub-G76V-GFP degradation (Ub-G76V-GFP/HeLa cells; 0.01 μM): 0.0336 min⁻¹
- % K (Ub-G76V-GFP/HeLa cells; 0.01 μM): 88%
- K, rate constant of Ub-G76V-GFP degradation (Ub-G76V-GFP/HeLa cells; 0.04 μM): 0.0322 min⁻¹
- % K (Ub-G76V-GFP/HeLa cells; 0.04 μM): 84%
- K, rate constant of Ub-G76V-GFP degradation (Ub-G76V-GFP/HeLa cells; 0.16 μM): 0.0260 min⁻¹
- % K (Ub-G76V-GFP/HeLa cells; 0.16 μM): 68%
- K, rate constant of Ub-G76V-GFP degradation (Ub-G76V-GFP/HeLa cells; 0.63 μM): 0.0095 min⁻¹
- % K (Ub-G76V-GFP/HeLa cells; 0.63 μM): 25%
- K, rate constant of Ub-G76V-GFP degradation (Ub-G76V-GFP/HeLa cells; 2.5 μM): 0.0005 min⁻¹
- % K (Ub-G76V-GFP/HeLa cells; 2.5 μM): 1%
- K, rate constant of Ub-G76V-GFP degradation (Ub-G76V-GFP/HeLa cells; 10 μM): 0.0009 min⁻¹
- % K (Ub-G76V-GFP/HeLa cells; 10 μM): 2%
- IC50 (Ub-G76V-GFP/HeLa cells; Homo sapiens, HeLa, 1 h, read-out: IC50 on the decay of Ub-G76V-GFP): 240 ± 40 nM

SMILES: CC(C)C[C@H](NC(=O)[C@H](Cc1ccccc1)NC(=O)c1cnccn1)B(O)O [Velcade, reference compound]
- GI50 (MRC5-SV40; Homo sapiens, MRC5, 48 h at 37° C., CellTiter-Glo, read-out: Cell line inhibition of growth GI50 MRC5-SV40): 100 ± 10 nM
- greater sensitivity of SV40-transformed cells than WT cell line (MRC5-SV40; MRC5-SV40 vs MRC5-WT GI50): 2 fold
- GI50 (MRC5-WT): 200 ± 70 nM
